Laboratory results: patent US12190997B2, “Genetically altered LysM receptors with altered agonist specificity and affinity” (Aarhus Universitet, priority 2018, dated 2025)

What was measured:
NFP L147D/L154D mutant = molecular target: T1, NFP L147D/L154D mutant (Medicago truncatula, UniProt Q0GXS4, L147D/L154D); experiment: BLI binding of NFP L147D/L154D mutant ectodomain to S. meliloti LCO-IV
T1 construct: The Medicago truncatula NFP ectodomain (residues 28-246) was codon-optimized; AcMNPV gp67 signal peptide (replaces native residues 1-27) (N, cleaved yes); made in house; host or cells: Sf9 insect cells (Spodoptera frugiperda), baculovirus, secreted into the medium
Source text: Creation of NFP point mutations: The NFP leucine residues L147 and L154 were replaced with aspartate residues. Aspartate is similar in size to leucine, but negatively charged where leucine is hydrophobic. Point mutants of NFP were engineered using site-directed mutagenesis. In particular, a double-mutated NFP was engineered where the leucine residues L147 and L154 were replaced with aspartate residues to create the mutant NFP L147D L154D. Point mutated versions of NFP were expressed and purified as described in Example 1.
NFP mutant binding assays: The binding assay using NFP wild type (WT) protein was replicated seven times, while the binding assay using the NFP mutant NFP L147D L154D was replicated four times.
Biolayer interferometry (BLI): Binding of NFP WT and NFP L147D/L154D mutant to S. meliloti LCO-IV was measured on an Octet RED 96 system (Pall ForteBio). S. meliloti LCO consists of a tetrameric/pentameric N-acetylglucosamine backbone that is O-sulfated on the reducing terminal residue, O-acetylated on the non-reducing terminal residue, and mono-N-acylated by unsaturated C16 acyl groups. Biotinylated ligand conjugates were immobilized on streptavidin biosensors (kinetic quality, Pall ForteBio) at a concentration of 125-250 nM for 5 minutes. The binding assays were replicated 7 times for the NFP WT, and 4 times for the NFP L147D/L154D mutant. Data analysis was performed in GraphPad Prism 6 software (GraphPad Software, Inc.). Equilibrium dissociation constants derived from the steady-state were determined by applying a non-linear regression (one site, specific binding) to the response at equilibrium plotted against the protein concentration. Kinetic parameters were determined by non-linear regression (association followed by dissociation) on the subtracted data. Binding of A. thaliana CERK1 (AtCERK1) to chitopentaose (CO5) and chitooctaose (CO8) was measured in the same way.

Medicago nfp mutants [1] = experiment: Complementation (nodulation) of Medicago nfp mutants, inoculation with S. meliloti strain 2011; type: in vivo, Medicago truncatula; conditions: 6-7 weeks after inoculation with S. meliloti strain 2011, hairy root transformation
Source text: (§1) Complementation assay: Construct assembly, plant growth conditions, hairy root transformations, nodulation and ROS assays were generally conducted as described in Bozsoki et al. (2017) (Bozsoki Z, Cheng J, Feng F, Gysel K, Vinther M, Andersen K R, Oldroyd G, Blaise M, Radutoiu S, Stougaard J (2017) Receptor-mediated chitin perception in legume roots is functionally separable from Nod factor perception. Proc Natl Acad Sci 114: E8118-E8127). The tested transgenes were the mutated LysM receptors described in Example 2.

Medicago nfp mutants [2] = experiment: Complementation (nodulation) of Medicago nfp mutants, inoculation with S. medicae; type: in vivo, Medicago truncatula
Source text: as §1
These complementation experiments were repeated using S. medicae inoculation, which has been reported to nodulate Medicago with higher efficiency. The results shown in FIG. 4B are complementation tests where the plants were inoculated with S. medicae.

[3] = test system: L. japonicus nfr1-1 mutant roots; experiment: Nodulation complementation of L. japonicus nfr1-1 mutants with LjNFR1/MtLYK3 chimeras, M. loti R7A; type: in vivo, Lotus japonicus; conditions: 35 days post inoculation with M. loti R7A
Source text: Complementation assay: Construct assembly, plant growth conditions, hairy root transformations, nodulation and ROS assays were generally conducted as described in Bozsoki et al. (2017) (Bozsoki Z, Cheng J, Feng F, Gysel K, Vinther M, Andersen K R, Oldroyd G, Blaise M, Radutoiu S, Stougaard J (2017) Receptor-mediated chitin perception in legume roots is functionally separable from Nod factor perception. Proc Natl Acad Sci 114: E8118-E8127). A general schematic of the construct is provided in FIG. 3, whereby the pNFR1 promoter was used to drive the chimeric constructs. The tested chimeric receptors in Lotus are depicted as block diagrams below the graph in FIG. 7, where NFR1 domains are shown in white and LYK3 domains are shown in grey, and transverse lines across the block depicting the LysM1 domain indicate sections II and IV. […] Nodules were counted on hairy root transformed L. japonicus nfr1-1 mutant roots 35 days post inoculation with M. loti R7Å. M. loti R7A is the cognate N-fixing bacterial strain for L. japonicus, and is not recognized by M. truncatula.

CCCCCC/C=C\CCCCC/C=C/C(=O)N[C@H]1[C@H](O[C@H]2[C@H](O)[C@@H](NC(C)=O)[C@H](O[C@H]3[C@H](O)[C@@H](NC(C)=O)[C@H](O[C@H]4[C@H](O)[C@@H](NC(C)=O)C(O)O[C@@H]4COS(=O)(=O)O)O[C@@H]3CO)O[C@@H]2CO)O[C@H](COC(C)=O)[C@@H](O)[C@@H]1O (some centres unmarked) [S. meliloti LCO-IV]
association rate (kon) faster compared to WT NFP-ECD (NFP L147D/L154D mutant; FIGS. 19A-19C): 4.5 fold
dissociation rate (koff) increased compared to WT NFP-ECD (NFP L147D/L154D mutant; FIGS. 19A-19C): 59 fold
Kd (NFP L147D/L154D mutant; S. meliloti LCO-IV, FIG. 2B): 48 ± 1 µM
Kd (NFP L147D/L154D mutant; purified L147D/L154D NFP-ECD, FIGS. 19A-19C): 167 ± 4.2 µM
affinity compared with NFP WT (NFP L147D/L154D mutant; S. meliloti LCO-IV, FIG. 2B): approximately two times lower affinity
association (Kon) compared with NFP WT (NFP L147D/L154D mutant; S. meliloti LCO-IV, FIG. 2B): almost unaffected
dissociation (Koff) faster than NFP WT (NFP L147D/L154D mutant; S. meliloti LCO-IV, FIG. 2B): approximately 15 times

B1: wild type Nfp gene: wild type Medicago NFP LysM receptor transgene used for hairy root complementation (protein, UniProt Q0GXS4 28-595, looked up)
Serine/threonine …: QPLYISETNFTCPVDSPPSCETYVAYRAQSPNFLSLSNISDIFNLSPLRIAKASNIEAEDKKLIPDQLLLVPVTCGCTKNHSFANITYSIKQGDNFFILSITSYQNLTNYLEFKNFNPNLSPTLLPLDTKVSVPLFCKCPSKNQLNKGIKYLITYVWQDNDNVTLVSSKFGASQVEMLAENNHNFTASTNRSVLIPVTSLPKLDQPSSNGRKSSSQNLALIIGISLGSAFFILVLTLSLVYVYCLKMKRLNRSTSSSETADKLLSGVSGYVSKPTMYEIDAIMEGTTNLSDNCKIGESVYKANIDGRVLAVKKIKKDASEELKILQKVNHGNLVKLMGVSSDNDGNCFLVYEYAENGSLEEWLFSESSKTSNSVVSLTWSQRITIAMDVAIGLQYMHEHTYPRIIHRDITTSNILLGSNFKAKIANFGMARTSTNSMMPKIDVFAFGVVLIELLTGKKAMTTKENGEVVILWKDFWKIFDLEGNREERLRKWMDPKLESFYPIDNALSLASLAVNCTADKSLSRPTIAEIVLCLSLLNQPSSEPMLERSLTSGLDAEATHVVTSVIAR
nodules per plant (Medicago nfp mutants [1]): 10 nodules per plant

B2: double mutant construct (L147D/L154D): Medicago NFP with leucine residues L147 and L154 replaced with aspartate (hydrophobic patch mutant) (protein, UniProt Q0GXS4 28-595, looked up, variant L147D L154D)
Serine/threonine …: QPLYISETNFTCPVDSPPSCETYVAYRAQSPNFLSLSNISDIFNLSPLRIAKASNIEAEDKKLIPDQLLLVPVTCGCTKNHSFANITYSIKQGDNFFILSITSYQNLTNYLEFKNFNPNDSPTLLPDDTKVSVPLFCKCPSKNQLNKGIKYLITYVWQDNDNVTLVSSKFGASQVEMLAENNHNFTASTNRSVLIPVTSLPKLDQPSSNGRKSSSQNLALIIGISLGSAFFILVLTLSLVYVYCLKMKRLNRSTSSSETADKLLSGVSGYVSKPTMYEIDAIMEGTTNLSDNCKIGESVYKANIDGRVLAVKKIKKDASEELKILQKVNHGNLVKLMGVSSDNDGNCFLVYEYAENGSLEEWLFSESSKTSNSVVSLTWSQRITIAMDVAIGLQYMHEHTYPRIIHRDITTSNILLGSNFKAKIANFGMARTSTNSMMPKIDVFAFGVVLIELLTGKKAMTTKENGEVVILWKDFWKIFDLEGNREERLRKWMDPKLESFYPIDNALSLASLAVNCTADKSLSRPTIAEIVLCLSLLNQPSSEPMLERSLTSGLDAEATHVVTSVIAR
complementation (Medicago nfp mutants [2]): complements poorly
nodules per plant (Medicago nfp mutants [1]): did not develop any nodules

B3: LjCERK6: unaltered Lotus CERK6 chitin receptor protein (SEQ ID NO:34), negative control (protein)
chain: MEHPRLGFPITLLLFSFILLPSTSQSKCTHGCALAQASYYLLNGSNLTYISEIMQSSLLTKPEDIVSYNQDTIASKDSVQAGQRINVPFPCDCIEGEFLGHTFQYDVQKGDRYDTIAGTNYANLTTVEWLRRFNSYPPDNIPDTGTLNVTVNCSCGDSGVGDYGLFVTYPLRPGETLGSVASNVKLDSALLQKYNPNVNFNQGSGIVYIPAKDQNGSYVLLGSSSGGLAGGAIAGIAAGVAVCLLLLAGFIYVGYFRKKRIQKEELLSQETRAIFPQDGKDENPRSTVNETPGPGGPAAMAGITVDKSVEFSYDELATATDNFSLANKIGQGGFGSVYYAELRGERAAIKKMDMQASKEFLAELKVLTRVHHLNLVRLIGYSIEGSLFLVYEFIENGNLSQHLRGSGRDPLPWATRVQIALDSARGLEYIHEHTVPVYIHRDIKSANILIDKNYRGKVADFGLTKLTEVGSSSLPTGRLVGTFGYMPPEYAQYGDVSPKVDVYAFGVVLYELISAKDAIVKTSESITDSKGLVALFEGVLSQPDPTEDLRKLVDQRLGDNYPVDSVRKMAQLAKACTQDNPQLRPSMRSIVVALMTLSSTTDDWDVGSFYENQNLVNLMSGR
complementation (nodulation) [3]: zero nodulation
